{"source": "patent US11364311B2", "about": "“Method of identifying ASD phenotype 1 patients” (Stalicla S.A., priority 2017, dated 2022)", "key": {"[1]": {"system": "humans", "details": "cited from earlier work"}, "[2]": {"system": "ASD phenotype 2 patients", "details": "for Clinical significance (CGI-I): after 3 days of sulforaphane administration; for ADI-R-RI S score / ADI-R-C S score / ADI-R-SI S score: day 3 of challenge test, given as broccoli sprout extract as in example 3; for ADI-R-SI S score: B score 16", "experimental": "The effects of sulforaphane containing Broccoli sprout extract was observed and quantified in 7 individuals suffering from ASD and previously classified as either phenotype 1 or phenotype 2 patients.\nWe describe a procedure consisting of an evaluation of patients with ASD prior and after administration of broccoli sprout extract. The extract was prepared from selected broccoli seeds known to have high yield of sulforaphane which were surface-disinfected and grown (sprouted) for 3 days in a commercial sprouting facility under controlled light and moisture conditions. A boiling water extract was prepared, filtered, cooled, and treated with the enzyme myrosinase (from daikon sprouts) to convert precursor glucosinolates to isothiocyanates. Behavioral evaluation of patients was performed prior, during and after administration of sulforaphane-containing broccoli sprout extract. Baseline evaluation of patients was performed using standard clinical endpoints (ADI-R subscales ADI-SI, ADI-C and ADI-RI).\nChallenge regimen consisted of the administration of a Broccoli Sprout Extract dose corresponding to a total daily dosage of 4 μmol/kg of sulforaphane, administered in 3 doses over the course of the day.\nThe assessment of baseline scores and post challenge test scores was conducted by two experienced clinicians with extensive experience in conducting ASD clinical assessments, both of which separately rated the patients. In case of diverging scores in test subscales at baseline or after administration of the challenge test, the lowest severity score was retained. Assessment of clinical endpoints was performed at day 3 of administration of challenge test. Behavioral Outcome Measures: (primary efficacy endpoints): ABC, SRS; CGI-S, CGI-I and ADI-R (ADI-SI, ADI-C, ADI-RI)."}, "[3]": {"system": "lymphoblastoid cell lines of ASD phenotype 1 patients", "test": "Energy production (NADH) in Biolog Phenotype Mammalian MicroArrays, phenotype 1 cells", "format": "cell-based, human", "details": "cells exposed to the factor; Figure 1 (AUC) and Table 1", "description": "The phenotype 1 cohort (Phi) selected far in vitro experiments was composed by 14 males and 1 female (ratio 14:1), with an age range of 2-17 years (average 7.7).\nFrom all subjects, blood samples were collected and lymphoblastoid cell lines generated. Briefly, tubes containing anticoagulant citrate dextrose (ACD) were used to collect blood samples via venipuncture, in order to ensure that the blood cells remained metabolically active. The tubes were kept at room temperature and processed within 24 hours.\nCell lines were obtained by immortalization of lymphocytes from blood samples using Epstein-Barr virus.\nEnergy production of cells was measured using commercially available Phenotype Mammalian MicroArrays (PM-Ms, Biolog, Hayward, Calif., USA).\nThe compound in each well was designed to be used by the cells, either as the sole energy source or as the metabolic effector influencing the utilization of an energy source (α-D-glucose) added in the cell suspension. […] Before plating, cell viability and number were assessed utilizing a BioRad cell counter and a trypan blue dye. The concentration of live cells required for plating was 4×10^5 cells/mL, corresponding to 20,000 cells per well in a volume of 50 μL. […] Cells were incubated for 48 h at 37° C. in 5% CO2, using the modified Biolog IF-M1 medium.\nThe Biolog IF-M1 medium was modified for plates PM-M1 to M4 by adding the following to 100 mL of Biolog IF-M1: 1.1 mL of 100× penicillin/streptomycin solution, 0.18 mL of 200 mM glutamine (final concentration 0.3 mM), and 5.3 mL of Fetal Bovine Serum (FBS, final concentration 5%). For plates PM-M5 to M8, 5.5 mM α-D-glucose will be added in place of FBS.\nDuring the 48-hour incubation, the only energy source the cells had was the chemical in the well. After this first incubation, Biolog Redox Dye Mix MB was added (10 μL/well) and the plates were incubated under the same conditions for an additional 24 hours. As the cells metabolized the energy source, tetrazolium dye in the media was reduced, producing a purple color according to the amount of NADH generated.\nFor the last 24 hours of the experiment, the plates were incubated in the Omnilog system, which collects optical density readings every 15 minutes, generating 96 data-points for each well. The system also elaborated the kinetic curve for the metabolic reaction in each well and extrapolated parameters such as slope, highest point, endpoint, area under the curve (AUC), and lag.\nAt the end of the 24-hour incubation, the plates were analyzed utilizing a microplate reader with readings at 590 and 750 nm. The first value (A590) indicated the highest absorbance peak of the redox dye and the second value (A750) gave a measure of the background noise. The relative absorbance (A590-750) was calculated per well."}, "[4]": {"details": "Example 4 Patient 1 (phenotype 2)"}, "[5]": {"details": "Example 4 Patient 2 (phenotype 2)"}}, "note": "Where two headings read alike, the source gives them in different places.", "data": [{"molecule": "C[S@@+]([O-])CCCCN=C=S", "note": "[sulforaphane, 1-isothiocyanato-4R-(methylsulfinyl)butane]", "values": [{"measurement": "tolerability of administration to humans", "setting": "[1]; humans", "value": "well tolerated"}, {"measurement": "toxicity", "setting": "[1]; in vivo", "value": "low toxicity"}, {"measurement": "Clinical significance (CGI-I)", "setting": "[2]; [4]", "value": "Very much improved"}, {"measurement": "ADI-R-RI S score", "setting": "[2]; Example 4 Patient 1 (phenotype 2), B score 3", "value": 3}, {"measurement": "ADI-R-C S score", "setting": "[2]; Example 4 Patient 1 (phenotype 2), B score 12", "value": 10}, {"measurement": "ADI-R-SI S score", "setting": "[2]; [4]", "value": 12}, {"measurement": "Clinical significance (CGI-I)", "setting": "[2]; [5]", "value": "Very much improved"}, {"measurement": "ADI-R-RI S score", "setting": "[2]; Example 4 Patient 2 (phenotype 2), B score 5", "value": 4}, {"measurement": "ADI-R-C S score", "setting": "[2]; Example 4 Patient 2 (phenotype 2), B score 11", "value": 9}, {"measurement": "ADI-R-SI S score", "setting": "[2]; [5]", "value": 14}]}, {"molecule": "FGF-1(aFGF): growth factor that selectively targets the PI3K-Akt-mTOR pathway", "values": [{"measurement": "production of NADH in ASD phenotype 1 cells compared to TDs and non-phenotype 1 cells", "setting": "[3]", "value": "significantly reduced production of NADH"}]}, {"molecule": "IGF-I: insulin-like growth factor 1", "values": [{"measurement": "production of NADH in ASD phenotype 1 cells compared to TDs and non-phenotype 1 cells", "setting": "[3]", "value": "no significant differences"}]}, {"molecule": "IL-1beta: Th1 cytokine", "values": [{"measurement": "production of NADH in ASD phenotype 1 cells compared to TDs and non-phenotype 1 cells", "setting": "[3]", "value": "significantly lower levels of NADH"}]}, {"molecule": "IL-6: Th1 cytokine", "values": [{"measurement": "production of NADH in ASD phenotype 1 cells compared to TDs and non-phenotype 1 cells", "setting": "[3]", "value": "significantly lower levels of NADH"}]}, {"molecule": "PDGF-AB: platelet-derived growth factor AB", "values": [{"measurement": "production of NADH in ASD phenotype 1 cells compared to TDs and non-phenotype 1 cells", "setting": "[3]", "value": "no significant differences"}]}, {"molecule": "hGH(Somatotropin): growth factor that selectively targets the PI3K-Akt-mTOR pathway", "values": [{"measurement": "production of NADH in ASD phenotype 1 cells compared to TDs and non-phenotype 1 cells", "setting": "[3]", "value": "significantly reduced production of NADH"}]}]}
